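48-hour exposure; five concentrations; linearly interpolated endpoints. GI50 is the concentration that inhibits growth by half. TGI denotes the concentration required for complete inhibition of growth.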
Test system: MDA-MB-468 breast
Assay: inhibition of tumour cell growth, NCI panel, 48 h

| SMILES | GI50 [nM] | TGI [nM] |
| --- | --- | --- |
| CC[C@H](C)[C@H](NC(=O)[C@H]1CCCCN1C)C(=O)N(C)[C@H](CCc1nc(C(=O)N[C@@H](Cc2ccccc2)C[C@H](C)C(=O)O)cs1)C(C)C | 85 | > 25000 |
| CC[C@H](C)[C@H](NC(=O)C12C3C4C1C1C2C3C41NC)C(=O)N(C)[C@H](C[C@@H](OC(C)=O)c1nc(C(=O)N[C@@H](Cc2ccccc2)C[C@H](C)C(=O)OC)cs1)C(C)C (some centres undefined) | 217 | > 5490 |
| Clc1ccc2c(NCCNc3nc(N4CCOCC4)nc4ccccc34)ccnc2c1 | 1910 | 4530 |
| Nc1nc(SCc2ccccc2CCl)c2[nH]cnc2n1 | 11900 | 30800 |
| Cc1cc(NC(=O)NCc2ccc(N3C(N)=NC(N)=NC3(C)C)cc2)ccc1S(=O)(=O)F | 7990 | > 100000 |
| Nc1ncn([C@H]2CC(O)[C@@H](CO)S2)c(=O)n1 (some centres undefined) | 5800 | > 100000 |
| CCn1cc(C(=O)O)c(=O)c2cc(F)c(N3CCN(S(=O)(=O)c4ccc(Cl)cc4Cl)CC3)cc21 | 1980 | 5500 |
| O=c1c(I)c[nH]cc1I | > 100000 | > 100000 |
| CC(=O)c1cc2c(N)c(C(=O)Nc3cccc4ccccc34)sc2nc1C | 1640 | 31100 |
| CCCCNc1ncnc2c1cnn2-c1ccccc1 | 2240 | 7600 |
| COc1cc2ncn(-c3cc(OCc4ccccc4C(F)(F)F)c(C(N)=O)s3)c2cc1OC | 61.9 | 857 |
| O=C1C(Cl)=C(Nc2ccc(S(=O)(=O)c3ccc(NC4=C(Cl)C(=O)c5ccccc5C4=O)cc3)cc2)C(=O)c2ccccc21 | 1500 | 3090 |
| CC[C@]12C=CCN3CC[C@]4(C(=C(C(=O)OC)C1)Nc1cc5c(cc14)[C@@H]1[C@H](O5)[C@@H](O)[C@@]4(CC)CC(C(=O)OC)=C5Nc6cc(O)ccc6[C@@]56CCN1C46)C32 (some centres undefined) | 38.4 | 1510 |
| CCn1c(-c2nonc2N)nc2ccccc21 | > 14900 | > 25000 |
| CC1(C)N=C(N)N=C(N)N1c1ccc(CCCC(=O)Nc2ccc(S(=O)(=O)F)cc2)cc1 | 3330 | > 100000 |
| CCCCCCCCCCCC1N=C(N)N=C(N)N1c1cccc(Br)c1 (centres undefined) | 528 | 1980 |
| CN(C)CCCN1c2ccccc2Sc2ccc(C(F)(F)F)cc21 | 1250 | 2650 |
| COc1cc(N=Nc2cc(Cc3ccc(N(C)C)cc3)c(N)cc2N(C)C)c2ncccc2c1 | 226 | 622 |
| CN1CCCCC1CCN1c2ccccc2Sc2ccc(Br)cc21 (centres undefined) | 1780 | 3650 |
| CN1C2C=CC(=O)C1C1C(=O)N(c3ccccc3)C(=O)C12 (centres undefined) | 2450 | 9030 |
| COc1cc2c(c(OC)c1OC)-c1cc(I)c(O)cc1[C@@H](NC(C)=O)CC2 | 24.3 | 71.5 |
| Cc1ccc(S(=O)(=O)OC[C@@]2(C)CC[C@]3(C)CC[C@]4(C)C(=C3C2)C=C[C@@H]2[C@@]3(C)CCCNC(C)(C)[C@@H]3CC[C@]24C)cc1 | 1590 | 3220 |

From PubChem BioAssay (NCI)
